# Laboratory results: patent US20260355212A1 (priority 2022, published 2026)
# pIC50: −log10 of the molar value.
# Assays:
# HCoV-NL63 Mpro = HCoV-NL63 Mpro (Human coronavirus NL63, UniProt P0C6X5); test: HCoV-NL63 Mpro enzymatic inhibition assay (fluorescence); format: biochemical
# In short: (§1)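 E. coli-expressed Mpro + cpd, 30 min RT preinc; add fluorogenic substrate, 60 min 30 °C; read Ex/Em 340/490 nm. % inhibition vs DMSO and GC376 controls, corrected with no-enzyme compound blanks; IC50 by 4-parameter logistic fit.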
# SARS-CoV-1 Mpro = SARS-CoV-1 Mpro (Severe acute respiratory syndrome coronavirus, UniProt P0C6X7); test: biochemical
# SARS-CoV-2 Mpro = SARS-CoV-2 Mpro (Severe acute respiratory syndrome coronavirus 2, UniProt P0DTD1); test: SARS-CoV-2 Mpro enzymatic inhibition assay (fluorescence); format: biochemical
# In short: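 Recombinant Mpro expressed in E. coli was preincubated 30 min at room temperature with 10-point, 3-fold serially diluted compound in duplicate. Fluorogenic substrate was then added and incubated 60 min at 30° C, and fluorescence read at Ex/Em 340/490 nm. IC50 came from a four-parameter fit of % inhibition.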
# MERS Mpro = MERS Mpro (Middle East respiratory syndrome-related coronavirus, UniProt K9N7C7); test: biochemical; design: species or system MERS-CoV
# MERS Mpro, sequence (K9N7C7 3248-3553 limits assumed): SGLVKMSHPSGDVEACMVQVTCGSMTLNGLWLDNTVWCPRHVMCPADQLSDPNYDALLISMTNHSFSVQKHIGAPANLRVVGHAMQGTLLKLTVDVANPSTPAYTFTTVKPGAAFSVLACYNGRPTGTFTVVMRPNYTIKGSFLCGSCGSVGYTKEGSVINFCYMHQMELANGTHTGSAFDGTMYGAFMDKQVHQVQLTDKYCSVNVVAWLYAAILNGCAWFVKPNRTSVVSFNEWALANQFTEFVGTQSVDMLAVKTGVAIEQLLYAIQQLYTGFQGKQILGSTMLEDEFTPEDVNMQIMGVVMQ
# HCoV-OC43 Mpro = HCoV-OC43 Mpro (Human coronavirus OC43, UniProt P0C6X6); test: HCoV-OC43 Mpro enzymatic inhibition assay (fluorescence); format: biochemical
# HCoV-OC43 Mpro, sequence (P0C6X6 3247-3549 limits assumed): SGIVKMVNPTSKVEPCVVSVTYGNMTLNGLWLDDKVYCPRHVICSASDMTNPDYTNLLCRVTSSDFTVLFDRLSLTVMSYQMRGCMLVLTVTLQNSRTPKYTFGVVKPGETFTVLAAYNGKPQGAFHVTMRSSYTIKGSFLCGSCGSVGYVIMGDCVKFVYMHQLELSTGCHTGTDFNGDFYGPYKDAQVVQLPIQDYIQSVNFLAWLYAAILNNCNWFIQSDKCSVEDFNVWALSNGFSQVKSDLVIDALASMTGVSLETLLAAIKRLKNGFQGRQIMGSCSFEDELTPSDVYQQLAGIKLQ
# In short: as §1
# HCoV-229E Mpro = HCoV-229E Mpro (Human coronavirus 229E, UniProt P0C6X1); test: HCoV-229E Mpro enzymatic inhibition assay (fluorescence); format: biochemical
# HCoV-229E Mpro, sequence (P0C6X1 2966-3267 limits assumed): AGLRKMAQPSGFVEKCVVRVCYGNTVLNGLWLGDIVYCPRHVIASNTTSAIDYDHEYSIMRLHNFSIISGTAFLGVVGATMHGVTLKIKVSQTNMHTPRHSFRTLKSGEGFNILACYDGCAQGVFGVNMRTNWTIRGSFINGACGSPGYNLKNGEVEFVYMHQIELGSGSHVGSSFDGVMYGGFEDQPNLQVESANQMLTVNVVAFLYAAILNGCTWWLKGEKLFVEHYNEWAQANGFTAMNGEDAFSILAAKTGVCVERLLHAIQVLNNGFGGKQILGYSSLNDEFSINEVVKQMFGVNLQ
# HCoV-HKU1 Mpro = HCoV-HKU1 Mpro (Human coronavirus HKU1, UniProt P0C6X2); test: HCoV-HKU1 Mpro enzymatic inhibition assay (fluorescence); format: biochemical
# HCoV-HKU1 Mpro, sequence (P0C6X2 3335-3637 limits assumed): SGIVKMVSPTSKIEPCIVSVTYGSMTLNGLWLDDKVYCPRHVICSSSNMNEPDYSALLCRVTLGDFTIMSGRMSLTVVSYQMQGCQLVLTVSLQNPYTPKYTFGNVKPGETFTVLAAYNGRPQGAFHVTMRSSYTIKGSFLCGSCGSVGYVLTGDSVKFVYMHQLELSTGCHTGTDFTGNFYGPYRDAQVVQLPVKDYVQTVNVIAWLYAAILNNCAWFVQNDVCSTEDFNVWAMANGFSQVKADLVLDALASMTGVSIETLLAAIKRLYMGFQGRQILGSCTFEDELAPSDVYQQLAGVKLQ
# In short: as §1
# HCoV-NL63 Mpro, sequence (P0C6X5 2940-3242 limits assumed): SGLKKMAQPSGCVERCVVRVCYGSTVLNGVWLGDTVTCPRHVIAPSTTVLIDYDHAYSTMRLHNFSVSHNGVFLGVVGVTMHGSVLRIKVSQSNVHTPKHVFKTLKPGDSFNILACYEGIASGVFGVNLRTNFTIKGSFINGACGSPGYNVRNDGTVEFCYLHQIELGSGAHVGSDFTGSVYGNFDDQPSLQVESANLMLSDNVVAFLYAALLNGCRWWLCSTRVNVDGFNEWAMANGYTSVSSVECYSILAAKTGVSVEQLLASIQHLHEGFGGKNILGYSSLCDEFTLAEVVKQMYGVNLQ
SMILES,pIC50 (HCoV-NL63 Mpro),pIC50 (SARS-CoV-1 Mpro),pIC50 (SARS-CoV-2 Mpro),pIC50 (MERS Mpro),pIC50 (HCoV-OC43 Mpro),pIC50 (HCoV-229E Mpro),pIC50 (HCoV-HKU1 Mpro)
"O=C1NCC[C@H]1C[C@H](NC(=O)[C@@H]1CC2(CC2)CN1C(=O)c1cc2ccccc2[nH]1)C(=O)c1nc2ccccc2s1 [Compound 127, (S)—N—((S)-1-(benzo[d]thiazol-2-yl)-1-oxo-3-((S)-2-oxopyrrolidin-3-yl)propan-2-yl)-5-(1H-indole-2-carbonyl)-5-azaspiro[2.4]heptane-6-carboxamide]",6.71,6.22,6.58,6.39,6.29,7.02,6.43
"O=C[C@H](C[C@@H]1CCNC1=O)NC(=O)[C@@H]1CC2(CCC2)CN1C(=O)c1cc2ccccc2[nH]1 [Compound 10, (S)-6-(1H-indole-2-carbonyl)-N—((S)-1-oxo-3-((S)-2-oxopyrrolidin-3-yl)propan-2-yl)-6-azaspiro[3.4]octane-7-carboxamide]",7.35,7.34,7.91,6.71,7.45,7.49,7.75
"N#Cc1cccc2[nH]c(C(=O)N3CC4(CC4)C[C@H]3C(=O)N[C@H](C=O)C[C@@H]3CCNC3=O)cc12 [Compound 76, (S)-5-(4-Cyano-1H-indole-2-carbonyl)-N—((S)-1-oxo-3-((S)-2-oxopyrrolidin-3-yl)propan-2-yl)-5-azaspiro[2.4]heptane-6-carboxamide]",7.48,7.22,7.48,6.70,7.52,7.57,7.88
"CC1(C)[C@@H]2[C@@H](C(=O)N[C@H](C=O)C[C@@H]3CCNC3=O)N(C(=O)C3(c4ccccc4)CCCC3)C[C@@H]21 [Compound 17, (1R,2S,5S)-6,6-dimethyl-N—((S)-1-oxo-3-((S)-2-oxopyrrolidin-3-yl)propan-2-yl)-3-(1-phenylcyclopentanecarbonyl)-3-azabicyclo[3.1.0]hexane-2-carboxamide]",6.74,7.56,7.82,6.56,7.22,7.32,7.62
"C[C@@H](C(=O)N1C[C@H]2[C@@H]([C@H]1C(=O)N[C@H](C=O)C[C@@H]1CCNC1=O)C2(C)C)c1ccccc1 [Compound 37, (1R,2S,5S)-6,6-dimethyl-N—((S)-1-oxo-3-((S)-2-oxopyrrolidin-3-yl)propan-2-yl)-3-((R)-2-phenylpropanoyl)-3-azabicyclo[3.1.0]hexane-2-carboxamide]",6.73,7.39,7.69,6.62,7.44,7.34,7.44
"CC1(C)C[C@@H](C(=O)N[C@H](C=O)C[C@@H]2CCNC2=O)N(C(=O)c2cc3c(F)cccc3[nH]2)C1 [Compound 51, (S)-1-(4-Fluoro-1H-indole-2-carbonyl)-4,4-dimethyl-N—((S)-1-oxo-3-((S)-2-oxopyrrolidin-3-yl)propan-2-yl)pyrrolidine-2-carboxamide]",7.65,7.42,7.61,6.72,7.66,7.56,7.89
"CC1(C)[C@@H]2[C@@H](C(=O)N[C@H](C=O)C[C@@H]3CCNC3=O)N(C(=O)c3cc4cc(F)ccc4[nH]3)C[C@@H]21 [Compound 24, (1R,2S,5S)-3-(5-fluoro-1H-indole-2-carbonyl)-N-[(1S)-1-formyl-2-[(3S)-2-oxopyrrolidin-3-yl]ethyl]-6,6-dimethyl-3-azabicyclo[3.1.0]hexane-2-carboxamide]",7.14,7.13,7.78,6.57,7.22,7.49,7.50
"O=C[C@H](C[C@@H]1CCNC1=O)NC(=O)[C@@H]1C[C@@H](C2CCCCC2)CN1C(=O)c1cc2cccc(Cl)c2[nH]1 [Compound 81, (2S,4S)-1-(7-chloro-1H-indole-2-carbonyl)-4-cyclohexyl-N—((S)-1-oxo-3-((S)-2-oxopyrrolidin-3-yl)propan-2-yl)pyrrolidine-2-carboxamide]",5.98,6.90,7.45,5.53,6.76,7.11,7.43
"CC1(C)[C@@H]2[C@@H](C(=O)N[C@H](C=O)C[C@@H]3CCNC3=O)N(C(=O)c3cc4cc5c(cc4[nH]3)OCO5)C[C@@H]21 [Compound 27, (1R,2S,5S)-3-(5H-[1,3]dioxolo[4,5-f]indole-6-carbonyl)-6,6-dimethyl-N—((S)-1-oxo-3-((S)-2-oxopyrrolidin-3-yl)propan-2-yl)-3-azabicyclo[3.1.0]hexane-2-carboxamide]",7.08,7.28,7.76,6.33,7.05,7.26,7.31
"CC1(C)[C@@H]2[C@@H](C(=O)N[C@H](C=O)C[C@@H]3CCNC3=O)N(C(=O)c3cc4c(Cl)cccc4[nH]3)C[C@@H]21 [Compound 43, (1R,2S,5S)-3-(4-Chloro-1H-indole-2-carbonyl)-6,6-dimethyl-N—((S)-1-oxo-3-((S)-2-oxopyrrolidin-3-yl)propan-2-yl)-3-azabicyclo[3.1.0]hexane-2-carboxamide]",7.32,7.59,7.66,6.63,7.34,7.41,7.74
"CC1(C)[C@@H]2[C@@H](C(=O)N[C@H](C=O)C[C@@H]3CCNC3=O)N(C(=O)c3cc4ncccc4[nH]3)C[C@@H]21 [Compound 83, (1R,2S,5S)-6,6-dimethyl-N—((S)-1-oxo-3-((S)-2-oxopyrrolidin-3-yl)propan-2-yl)-3-(1H-pyrrolo[3,2-b]pyridine-2-carbonyl)-3-azabicyclo[3.1.0]hexane-2-carboxamide]",7.23,6.94,7.45,6.36,7.09,7.33,7.41
"CC1(C)[C@@H]2[C@@H](C(=O)N[C@H](C=O)C[C@@H]3CCNC3=O)N(C(=O)c3cc4cccc(Cl)c4[nH]3)C[C@@H]21 [Compound 5, (1R,2S,5S)-3-(7-chloro-1H-indole-2-carbonyl)-6,6-dimethyl-N—((S)-1-oxo-3-((S)-2-oxopyrrolidin-3-yl)propan-2-yl)-3-azabicyclo[3.1.0]hexane-2-carboxamide]",7.27,7.65,7.98,6.83,7.38,7.47,7.66
"CC1(C)[C@@H]2[C@@H](C(=O)N[C@H](C=O)C[C@@H]3CCNC3=O)N(C(=O)c3cc4cccc(F)c4[nH]3)C[C@@H]21 [Compound 6, (1R,2S,5S)-3-(7-fluoro-1H-indole-2-carbonyl)-6,6-dimethyl-N—((S)-1-oxo-3-((S)-2-oxopyrrolidin-3-yl)propan-2-yl)-3-azabicyclo[3.1.0]hexane-2-carboxamide]",7.42,7.71,7.97,6.77,7.41,7.51,7.60
"O=C[C@H](C[C@@H]1CCNC1=O)NC(=O)[C@@H]1CC2(CC2)CN1C(=O)CC1CCCCC1 [Compound 126, (S)-5-(2-Cyclohexylacetyl)-N—((S)-1-oxo-3-((S)-2-oxopyrrolidin-3-yl)propan-2-yl)-5-azaspiro[2.4]heptane-6-carboxamide]",7.01,7.07,6.64,6.45,6.95,7.25,7.42
"Cc1ccc(F)c2[nH]c(C(=O)N3C[C@H]4[C@@H]([C@H]3C(=O)N[C@H](C=O)C[C@@H]3CCNC3=O)C4(C)C)cc12 [Compound 77, (1R,2S,5S)-3-(7-Fluoro-4-methyl-1H-indole-2-carbonyl)-6,6-dimethyl-N—((S)-1-oxo-3-((S)-2-oxopyrrolidin-3-yl)propan-2-yl)-3-azabicyclo[3.1.0]hexane-2-carboxamide]",7.00,7.56,7.48,6.40,7.08,7.38,7.34
"CC1(C)C[C@@H](C(=O)N[C@H](C=O)C[C@@H]2CCNC2=O)N(C(=O)c2cc3cccc(C#N)c3[nH]2)C1 [Compound 58, (S)-1-(7-Cyano-1H-indole-2-carbonyl)-4,4-dimethyl-N—((S)-1-oxo-3-((S)-2-oxopyrrolidin-3-yl)propan-2-yl)pyrrolidine-2-carboxamide]",7.39,7.20,7.59,6.47,7.25,7.55,7.72
"O=C[C@H](C[C@@H]1CCNC1=O)NC(=O)[C@@H]1[C@H]2C[C@H](F)[C@H](C2)N1C(=O)c1cc2ccccc2[nH]1 [Compound 106, (1S,3S,4R,6S)-6-Fluoro-2-(1H-indole-2-carbonyl)-N—((S)-1-oxo-3-((S)-2-oxopyrrolidin-3-yl)propan-2-yl)-2-azabicyclo[2.2.1]heptane-3-carboxamide]",6.81,6.75,7.13,6.07,6.93,7.04,7.40
